# Experimental data reported in article PMC5164969 (Bioorganic & medicinal chemistry, 2016).
# Key:
# [1] = tested on: E. coli MC1061; experiment: Antibacterial MIC; assay type: cell-based; settings: Escherichia coli
# [2] = tested on: panel of Gram-positive, Gram-negative and mycobacterial strains; experiment: Antibacterial MIC, summary over the panel of bacterial strains; assay type: cell-based; settings: all bacterial strains tested
# [3] = tested on: B. subtilis 168; experiment: Antibacterial MIC; assay type: cell-based; settings: Bacillus subtilis
# [4] = tested on: methicillin-resistant Staphylococcus aureus (MRSA); experiment: Antibacterial MIC; assay type: cell-based
# [5] = tested on: E. cloacae ATCC 13047; experiment: Antibacterial MIC; assay type: cell-based; settings: Enterobacter cloacae, ATCC13047
# [6] = molecular target: hERG channel (Homo sapiens, UniProt Q12809); assay type: binding; settings: class by IC50
# hERG channel, sequence (Q12809 whole entry): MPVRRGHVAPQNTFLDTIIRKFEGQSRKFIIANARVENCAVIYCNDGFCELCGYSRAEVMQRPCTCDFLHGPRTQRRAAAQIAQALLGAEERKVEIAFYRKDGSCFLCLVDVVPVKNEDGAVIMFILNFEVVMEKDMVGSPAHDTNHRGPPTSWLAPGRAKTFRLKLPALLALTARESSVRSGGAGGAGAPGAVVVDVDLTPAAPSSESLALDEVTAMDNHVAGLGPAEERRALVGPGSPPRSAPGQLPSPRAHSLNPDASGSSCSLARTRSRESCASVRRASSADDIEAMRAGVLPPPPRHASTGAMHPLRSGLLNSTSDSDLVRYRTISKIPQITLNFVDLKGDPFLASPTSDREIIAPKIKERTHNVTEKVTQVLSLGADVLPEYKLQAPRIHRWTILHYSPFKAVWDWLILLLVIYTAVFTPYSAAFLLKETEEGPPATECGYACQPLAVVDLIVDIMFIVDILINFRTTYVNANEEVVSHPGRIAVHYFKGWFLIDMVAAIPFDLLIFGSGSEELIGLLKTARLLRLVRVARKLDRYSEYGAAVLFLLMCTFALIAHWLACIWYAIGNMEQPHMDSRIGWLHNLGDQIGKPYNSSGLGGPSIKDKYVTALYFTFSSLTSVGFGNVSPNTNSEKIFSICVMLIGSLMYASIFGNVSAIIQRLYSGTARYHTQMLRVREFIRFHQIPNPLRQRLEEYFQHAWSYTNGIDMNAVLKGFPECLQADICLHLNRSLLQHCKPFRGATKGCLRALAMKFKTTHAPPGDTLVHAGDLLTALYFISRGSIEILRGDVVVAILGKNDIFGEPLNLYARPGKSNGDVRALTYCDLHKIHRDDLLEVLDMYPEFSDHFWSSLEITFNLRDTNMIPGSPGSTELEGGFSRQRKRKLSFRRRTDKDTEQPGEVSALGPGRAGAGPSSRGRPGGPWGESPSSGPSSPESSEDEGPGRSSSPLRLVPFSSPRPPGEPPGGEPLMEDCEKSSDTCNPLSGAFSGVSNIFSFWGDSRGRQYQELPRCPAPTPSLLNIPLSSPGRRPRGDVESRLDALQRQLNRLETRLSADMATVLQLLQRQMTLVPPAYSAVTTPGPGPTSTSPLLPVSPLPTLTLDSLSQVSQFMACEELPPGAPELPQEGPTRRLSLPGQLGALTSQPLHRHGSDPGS
# [7] = tested on: L. monocytogenes ATCC 19115; assay type: cell-based, Listeria monocytogenes; settings: strain B (Lmo), 15 serial passages
# [8] = tested on: MRSA; assay type: cell-based, Staphylococcus aureus; settings: strain C (MRSA), 15 serial passages
# [9] = tested on: VRE; assay type: cell-based, enterococcus; settings: strain D (VRE), 15 serial passages
# [10] = tested on: P. aeruginosa ATCC 27853; assay type: cell-based; settings: strain I (Pae); for development of resistance (passage after which resistance developed): 15 serial passages
# [11] = tested on: C. albicans ATCC 10231; assay type: cell-based, Candida albicans; settings: C. albicans ATCC 10231, repeated treatments with sub-MIC drug concentrations
# [12] = tested on: C. albicans ATCC 10231; experiment: Intracellular ROS production, DCFH-DA fluorescence assay; assay type: cell-based, Candida albicans; settings: 1 h at 35 °C, DCFH-DA staining
# [13] = tested on: P. aeruginosa ATCC 27853; experiment: Antibacterial MIC; assay type: cell-based; settings: Pseudomonas aeruginosa, ATCC27853
# [14] = Mammalian cell cytotoxicity, summary over both cell lines; assay type: cell-based; settings: human, A549 cells and BEAS-2B cells
# [15] = tested on: C. albicans ATCC 64124; experiment: Antifungal MIC; assay type: cell-based; settings: Candida albicans, ATCC64124
# [16] = tested on: C. albicans ATCC 90819; experiment: Antifungal MIC; assay type: cell-based; settings: Candida albicans, ATCC90819
# [17] = tested on: L. monocytogenes ATCC 19115; experiment: Antibacterial MIC; assay type: cell-based; settings: Listeria monocytogenes, ATCC19115
# [18] = tested on: vancomycin-resistant enterococcus (VRE); experiment: Antibacterial MIC; assay type: cell-based
# [19] = tested on: K. pneumoniae ATCC 27736; experiment: Antibacterial MIC; assay type: cell-based; settings: Klebsiella pneumoniae, ATCC27736
# [20] = tested on: seven Candida albicans strains; experiment: Antifungal MIC, summary over the panel of seven strains; assay type: cell-based; settings: most of the fungal strains tested / overall
structure (smiles),measurement,setting,value
"CC1COc2c(N3CCN(C)CC3)c(F)cc3c(=O)c(C(=O)O)cn1c23 (stereo not shown) [OFX, ofloxacin, reference compound]",MIC,[1],1.4 to 2.8 µg/mL
same,"MIC, range over bacterial strains tested",[2],≤0.5 to 31.3 µM
C/C(=N\NC(=N)N)c1ccc(Oc2ccc(/C(C)=N/NC(=N)N)cc2)cc1.Cl.Cl [Compound 4E],MIC,[3],54.9 µg/mL
same,MIC,[4],54.9 µg/mL
same,MIC,[1],54.9 µg/mL
Cl.N=C(N)N/N=C/c1ccc(-c2ccc(/C=N/Nc3ccccc3Br)cc2)cc1 [Compound 7Ab],MIC,[1],> 235 µg/mL
Cl.Cl.N=C(N)N/N=C/c1ccc(-c2ccc(/C=N/NC(=N)N)cc2)cc1 [Compound 3A],MIC,[1],> 198 µg/mL
C/C(=N\NC(=N)N)c1ccc2c(c1)Cc1cc(/C(C)=N/NC(=N)N)ccc1-2.Cl.Cl [Compound 4F],MIC,[5],218 µg/mL
same,MIC,[1],218 µg/mL
same,affinity for / interaction with hERG (class),[6],moderate (IC50 values in the range of 1-10 μM are considered to have moderate affinity)
same,development of resistance (passage after which resistance developed),[7],did not develop resistance
same,development of resistance (passage after which resistance developed),[8],did not develop resistance
same,development of resistance (passage after which resistance developed),[9],did not develop resistance
same,development of resistance (passage after which resistance developed),[10],did not develop resistance
same,development of drug resistance,[11],did not to develop drug resistance
same,intracellular ROS production,[12]; 1× and 2× MIC,increased intracellular ROS production
C/C(=N\NC(=N)N)c1ccc(-c2ccc(/C(C)=N/Nc3ccccc3Cl)cc2)cc1.Cl [Compound 8Aa],MIC,[5],213 µg/mL
same,MIC,[1],213 µg/mL
same,MIC,[13],213 µg/mL
Cl.Cl.N=C(N)N/N=C/c1ccc(-c2cccc(/C=N/NC(=N)N)c2)cc1 [Compound 3B],MIC,[1],> 198 µg/mL
same,IC50,[14],4.4 to 13.9 µg/mL
"C[C@@H]1[C@H](O)[C@@H](C)/C=C/C=C/C=C/C=C/C=C/C=C/C=C/[C@H](O[C@@H]2O[C@H](C)[C@@H](O)[C@H](N)[C@@H]2O)C[C@@H]2O[C@](O)(C[C@@H](O)C[C@@H](O)[C@H](O)CC[C@@H](O)C[C@@H](O)CC(=O)O[C@H]1C)C[C@H](O)[C@H]2C(=O)O [AmB, amphotericin B]",MIC,[15],2 to 3.9 µg/mL
same,MIC,[16],2 µg/mL
"OO [Compound H2O2, H2O2, reference compound]",intracellular ROS production,[12]; positive control at 1 mM,induced ROS production
Cl.N=C(N)N/N=C/c1ccc(-c2ccc(/C=N/Nc3ccccc3Cl)cc2)cc1 [Compound 7Aa],MIC,[3],> 215 µg/mL
same,MIC,[17],0.4 to 0.9 µg/mL
same,MIC,[4],0.9 µg/mL
same,MIC,[18],0.9 µg/mL
same,MIC,[5],> 215 µg/mL
same,MIC,[1],> 215 µg/mL
same,MIC,[19],> 215 µg/mL
same,MIC,[13],> 215 µg/mL
same,affinity for / interaction with hERG (class),[6],moderate (IC50 values in the range of 1-10 μM are considered to have moderate affinity)
same,development of resistance (passage after which resistance developed),[7],did not develop resistance
same,development of resistance (passage after which resistance developed),[8],twelve
same,development of resistance (passage after which resistance developed),[9],did not develop resistance
same,development of resistance (passage after which resistance developed),[10],twelve
same,development of drug resistance,[11],did not to develop drug resistance
same,intracellular ROS production,[12]; 1× and 2× MIC,increased intracellular ROS production
Cl.N#Cc1ccc(N/N=C/c2ccc(-c3ccc(/C=N/NC(=N)N)cc3)cc2)cc1 [Compound 7Ae],MIC,[1],26.1 to 52.2 µg/mL
C/C(=N\NC(=N)N)c1ccc(CCc2ccc(/C(C)=N/NC(=N)N)cc2)cc1.Cl.Cl [Compound 4D],MIC,[1],> 226 µg/mL
same,increase in MIC values,[10]; after 15 serial passages at sub-inhibitory concentrations,4 fold
Cl.N=C(N)N/N=C/c1ccc(-c2ccc(/C=N/Nc3ccc(Cl)cc3)cc2)cc1 [Compound 7Ad],MIC,[1],> 214 µg/mL
same,IC50,[14],4.4 to 13.9 µg/mL
C/C(=N\NC(=N)N)c1ccc(/C(C)=N/NC(=N)N)cc1.Cl.Cl [Compound 4G],MIC,[1],> 173 µg/mL
"NCC[C@H](O)C(=O)N[C@@H]1C[C@H](N)[C@@H](O[C@H]2O[C@H](CN)[C@@H](O)[C@H](O)[C@H]2O)[C@H](O)[C@H]1O[C@H]1O[C@H](CO)[C@@H](O)[C@H](N)[C@H]1O [AMK, amikacin, reference compound]",MIC,[17],3 µg/mL
same,MIC,[4],24.5 µg/mL
same,MIC,[1],24.5 µg/mL
same,MIC,[19],24.5 µg/mL
same,development of resistance (passage after which resistance developed),[7],15 passages
same,development of resistance (passage after which resistance developed),[8],12 passages
same,development of resistance (passage after which resistance developed),[9],3 passages
same,development of resistance (passage after which resistance developed),[10],5 passages
same,"MIC, range over bacterial strains tested",[2],3.9 to 125 µM
Cl.N=C(N)N/N=C/c1ccc(-c2ccc(/C=N/Nc3ccc(F)cc3F)cc2)cc1 [Compound 7Af],MIC,[1],> 214 µg/mL
same,affinity for / interaction with hERG (class),[6],moderate (IC50 values in the range of 1-10 μM are considered to have moderate affinity)
same,antifungal activity (class),[20],excellent (excellent (MIC = 0.5-3.9 μg/mL))
same,IC50,[14],4.4 to 13.9 µg/mL
"CC1(C)S[C@@H]2[C@H](NC(=O)[C@H](N)c3ccccc3)C(=O)N2[C@H]1C(=O)O [AMP, ampicillin, reference compound]",MIC,[1],> 92.8 µg/mL
same,"MIC, range over bacterial strains tested",[2],≥ 250 µM
Cl.N=C(N)N/N=C/c1ccc(-c2ccc(/C=N/Nc3ccc(Cl)cc3Cl)cc2)cc1 [Compound 7Ag],MIC,[1],> 231 µg/mL
C/C(=N\NC(=N)N)c1ccc(Cc2ccc(/C(C)=N/NC(=N)N)cc2)cc1.Cl.Cl [Compound 4C],MIC,[1],> 219 µg/mL
C/C(=N\NC(=N)N)c1ccc(-c2ccc(/C(C)=N/NC(=N)N)cc2)cc1.Cl.Cl [Compound 4A],MIC,[1],26.5 µg/mL
C/C(=N\NC(=N)N)c1cccc(/C(C)=N/NC(=N)N)c1.Cl.Cl [Compound 4H],MIC,[1],> 173 µg/mL
